Tests used:
[1] = biological target: T1, full-length human KDAC6 (Homo sapiens, UniProt Q9UBN7); test: Activity of KDAC6 with putative substrate peptides (verification of substrate preferences); type: biochemical; settings: endpoint, 100 μM peptide, buffer also containing 100 mM KCl; for specific activity, KDAC6 with putative substrates: 50–200 nM KDAC, 25 °C, pH 7.6, 15–60 min, average ± SD, SD
T1 construct: A pFastbac1 construct containing full-length human KDAC6 (UniProtKB Q9UBN7) with a C-terminal His6 tag; His6 (C); made in house; host or cells: ExpiSf9 insect cells (baculovirus)
T1 sequence (Q9UBN7 1-1215): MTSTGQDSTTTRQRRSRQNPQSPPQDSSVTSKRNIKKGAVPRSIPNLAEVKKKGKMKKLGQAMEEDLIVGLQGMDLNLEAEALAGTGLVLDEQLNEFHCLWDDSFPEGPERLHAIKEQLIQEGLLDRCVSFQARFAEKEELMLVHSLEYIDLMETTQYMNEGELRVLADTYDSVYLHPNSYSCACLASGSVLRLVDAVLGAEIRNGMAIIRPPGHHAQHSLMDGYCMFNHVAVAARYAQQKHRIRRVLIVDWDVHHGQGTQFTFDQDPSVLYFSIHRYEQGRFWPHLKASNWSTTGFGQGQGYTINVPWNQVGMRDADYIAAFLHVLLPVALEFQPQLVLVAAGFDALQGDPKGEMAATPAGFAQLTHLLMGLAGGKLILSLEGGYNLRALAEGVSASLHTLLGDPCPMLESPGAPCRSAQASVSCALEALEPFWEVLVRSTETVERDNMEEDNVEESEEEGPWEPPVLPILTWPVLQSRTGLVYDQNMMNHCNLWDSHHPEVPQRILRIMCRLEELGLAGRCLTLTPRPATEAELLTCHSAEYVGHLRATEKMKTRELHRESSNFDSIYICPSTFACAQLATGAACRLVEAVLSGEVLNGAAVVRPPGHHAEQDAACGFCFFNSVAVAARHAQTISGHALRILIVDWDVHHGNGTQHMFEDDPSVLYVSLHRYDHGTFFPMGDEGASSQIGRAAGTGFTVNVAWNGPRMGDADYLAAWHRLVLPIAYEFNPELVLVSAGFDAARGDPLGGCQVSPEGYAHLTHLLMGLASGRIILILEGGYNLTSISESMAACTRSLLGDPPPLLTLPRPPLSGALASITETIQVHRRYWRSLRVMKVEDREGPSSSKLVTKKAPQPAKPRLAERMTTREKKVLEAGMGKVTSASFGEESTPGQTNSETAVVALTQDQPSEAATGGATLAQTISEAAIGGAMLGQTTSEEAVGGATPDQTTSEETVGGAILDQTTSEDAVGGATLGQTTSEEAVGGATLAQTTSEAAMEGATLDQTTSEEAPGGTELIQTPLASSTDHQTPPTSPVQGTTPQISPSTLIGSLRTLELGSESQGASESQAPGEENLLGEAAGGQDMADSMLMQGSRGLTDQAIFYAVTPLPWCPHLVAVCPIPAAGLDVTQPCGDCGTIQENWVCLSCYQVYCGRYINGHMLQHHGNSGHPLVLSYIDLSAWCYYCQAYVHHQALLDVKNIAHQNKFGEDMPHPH
Method: (§1) Peptide substrates were synthesized to >95% purity (GenScript) with N-terminal acetylation and C-terminal amidation. For endpoint experiments, 100 μM peptide substrates were reacted with 50–200 nM KDAC at 25 °C at pH 7.6 for 15–60 min. Deacetylation was measured using a fluorescamine-based assay that was previously described in detail.[18] Reported raw activity for each enzyme–substrate pair is the average and standard deviation for n ≥ 4 unless otherwise noted. Normalized activity was calculated by defining the activity of each KDAC with the FRK^acWR peptide equal to 1. Statistical significance was determined by calculating p values using two-tailed t-tests, assuming similar variance. The significance threshold was set at p ≤ 0.01 with the Bonferroni correction for multiple testing. Kinetic parameters were determined for a subset of enzyme–substrate pairs. In these experiments, 50–200 nM KDAC was reacted with ≥5 substrate concentrations from 10 to 2500 nM and ≥3 timepoints at intervals of 3–20 min were collected for each substrate concentration. Deacetylation was measured using the same method as the endpoint experiments, and KM and kcat were calculated from the observed activity of each reaction as previously described.[18] Activity assays with peptides for verification of substrate preferences were performed as for endpoint experiments, except in a buffer also containing 100 mM KCl. Statistical analysis of the correlation of the presence of particular substrate residues with activity was performed using Fisher’s exact test with a significance threshold of p ≤ 0.05.
In contrast with the peptides tested thus far, which were all derivatives of a single substrate, these panels consisted of peptides derived from human proteins in which the lysine residue is known to be acetylated in cells.[3],[5],[42],[50]−[72] For each enzyme, peptides were included either because they contained an acetyllysine that has been identified as a putative substrate of the KDAC from published cellular studies and/or because the peptide contained a residue that appeared to drive KDAC activity in our analysis. For KDAC6, we observed that of the set of peptides that were tested, six contained tryptophan or tyrosine directly after the acetyllysine. Remarkably, all of these peptides appeared in the top seven most reactive substrates tested (Table 2). Assuming that phenylalanine would behave similarly to tryptophan and tyrosine, we determined that there was a statistically significant correlation between whether or not a peptide was deacetylated by KDAC6 and the presence of tyrosine, tryptophan, or phenylalanine in the +1 position (p = 0.011). […] Thus, our conclusion that the presence of these aromatic residues in the +1 position relative to the acetyllysine is a major factor promoting KDAC6 activity has predictive utility and provides some understanding of the underlying mechanistic basis.

[2] = biological target: T2, Full-length human KDAC8 (Homo sapiens, UniProt Q9BY41); test: Activity of KDAC8 with putative substrate peptides (verification of substrate preferences); type: biochemical; settings: endpoint, 100 μM peptide, buffer also containing 100 mM KCl; for specific activity, KDAC8 with putative substrates (no activity above limit): limit of reliable detection 0.0004 s^–1; for specific activity, KDAC8 with putative substrates: 50–200 nM KDAC, 25 °C, pH 7.6, 15–60 min, average ± SD, SD
T2 construct: Full-length human KDAC8 (UniProtKB Q9BY41) was recombinantly expressed fused to a C-terminal His6 tag; TEV protease cleavage site (C); His6 (C); made in house; host or cells: Escherichia coli
T2 sequence (Q9BY41 1-377): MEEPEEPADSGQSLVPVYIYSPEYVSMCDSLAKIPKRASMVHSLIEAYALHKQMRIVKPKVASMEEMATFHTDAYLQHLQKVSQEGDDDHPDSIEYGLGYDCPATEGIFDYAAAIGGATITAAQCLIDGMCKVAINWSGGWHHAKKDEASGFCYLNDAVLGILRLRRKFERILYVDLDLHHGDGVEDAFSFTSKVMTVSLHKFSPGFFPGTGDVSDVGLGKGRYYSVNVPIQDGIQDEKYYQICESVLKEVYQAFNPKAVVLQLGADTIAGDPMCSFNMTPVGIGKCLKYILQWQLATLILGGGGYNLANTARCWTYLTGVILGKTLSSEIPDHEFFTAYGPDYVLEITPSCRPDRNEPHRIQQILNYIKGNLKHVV
Method: as §1
We performed a similar experiment for KDAC8, this time using substrates that have been described as potential KDAC8 substrates from cell-based studies or which contained residues in the +1 and/or +2 positions that were identified to enhance activity of KDAC8. […] In addition, we also considered phenylalanine, as we did for KDAC6. Here, we looked at the correlation between peptides having any of these features and activity. While the result was less striking than for KDAC6, there was still a positive correlation between the presence of the identified residues and activity (Table 3; p = 0.048). Although we have identified only a portion of the interactions that likely contribute to substrate selectivity for these enzymes, these interactions correlate with a statistically significant increase in activity with peptides from potential biological substrates in an unbiased background of residues in other positions.

Substance	specific activity, KDAC6 with putative substrates [1]	specific activity, KDAC8 with putative substrates [2]	specific activity, KDAC6 with putative substrates (no activity above limit) ([1]; limit of reliable detection 0.0013 s^–1)	specific activity, KDAC8 with putative substrates (no activity above limit) [2]
GTAK^acSVT [acetyllysine peptide from cellular tumor antigen p53 (P04637)]			– (– indicates no activity above the limit of reliable detection (0.0013 s^–1))	– (– indicates no activity above the limit of reliable detection (0.0004 s^–1))
QLSK^acWP [acetyllysine peptide from forkhead box protein O3 (O43524)]	0.14 ± 0.03 s^–1	0.020 ± 0.006 s^–1		
SDMK^acHWP [acetyllysine peptide from heat shock 70 kDa protein 1A/1B (P0DMV8/P0DMV9)]	0.013 ± 0.009 s^–1			– (– indicates no activity above the limit of reliable detection (0.0004 s^–1))
SHLK^acAHL [acetyllysine peptide from transcription factor Sp7 (Q8TDD2)]	0.024 ± 0.013 s^–1			– (– indicates no activity above the limit of reliable detection (0.0004 s^–1))

The next lines start with results.

specific activity, KDAC6 with putative substrates [1]	specific activity, KDAC8 with putative substrates [2]	Substance	specific activity, KDAC6 with putative substrates (no activity above limit) ([1]; limit of reliable detection 0.0013 s^–1)	specific activity, KDAC8 with putative substrates (no activity above limit) [2]
0.055 ± 0.024 s^–1		GVGK^acYIN [acetyllysine peptide from RING-type E3 ubiquitin-protein ligase PPIL2 (Q13356)]		– (– indicates no activity above the limit of reliable detection (0.0004 s^–1))
0.024 ± 0.005 s^–1		LSGK^acEIN [acetyllysine peptide from serine/arginine-rich splicing factor 5 (Q13243)]		– (– indicates no activity above the limit of reliable detection (0.0004 s^–1))
0.10 ± 0.04 s^–1	0.0011 ± 0.0006 s^–1	TGNK^acYVP [acetyllysine peptide from tubulin β-3 chain (Q13509)]		
